Measurements taken from US20250051375A1, “ANTI-HIV COMPOUNDS” (Gilead Sciences, Inc., priority 2023, published 2025).
≈ marks a conversion by molar mass, not a printed value.

Tests used:
[1] = Intestinal S9 Assay (dog GI S9); assay type: in vitro ADME; settings: 1.0 mg/mL S9 protein; for Dog GI S9 [Intermediate A] / Dog GI S9 [Intermediate A] %: 2 μM, TRIS pH 7.4; for half-life at 2 μM: dog, TRIS pH 7.4, read-out: Dog GI S9 T½
Protocol: (§1) Reagents. Stock solutions of test compounds in dimethyl sulfoxide (DMSO) having a final concentration of 10 mM were prepared and used in all experiments. Sekisui XenoTech (Kansas City, KS) provided pooled intestinal S9 fractions. All other chemicals were purchased from Sigma-Aldrich (St. Louis, MO) or VWR (West Chester, PA). Internal Standard/Quench (IS/Q) used to stop reactions was 100 nM labetalol in (by volume) formic acid (1%) and acetonitrile (99%).
(§2) Intestinal S9 Assay: For each test compound, an aliquot of the test compound was added to S9 stock diluted with TRIS buffer (100 mM TRIS, 1 mM ZnCl2, 1 mM MgCl2), pH 7.4, to obtain an incubation protein concentration of 1.0 mg/mL. The incubation was initiated by the addition of the substrate to the S9 reaction mixture to a final concentration of 2 μM. At 0, 10, 20, 30, 60 and 120 min, 25 μL aliquots of the reaction mixture were transferred to plates containing 225 μl of IS/Q solution. After quenching, the plates were centrifuged at 3000×g for 30 minutes. 150 μL aliquots of each supernatant were transferred to new plates and 150 μL water was added. Aliquots (10 μL) of the prepared samples were analyzed on a Thermo Q-Exactive mass spectrometer as described below.
(§3) Liquid Chromatography-Mass Spectrometry: Quantification of test compounds and control substrate was performed by analyte/internal standard peak area ratio (PAR) values measured on a Thermo Q-Exactive mass spectrometer coupled to a Dionex UltiMate 3000 HPLC with a Leap Technologies HTC PAL autosampler. The column used for analysis was a Thermo Scientific Hypersil GOLD (1.9 μm particle size, 50×2.1 mm). Mobile phase A consisted of 0.1% (v/v) formic acid in water. Mobile phase B consisted of 0.1% (v/v) formic acid in acetonitrile. Elution of analytes was achieved by a series of linear gradients varying the proportions of A and B. The mass spectrometer was calibrated on a weekly basis and mass tolerance of 5 ppm was used.
(§4) Data Analysis. Metabolic stabilities were determined by measuring the rates of disappearance of test compound and positive control substrate. Data (% of substrate remaining) were plotted on a semi-log scale and fitted using an exponential decline model:
(§5) where • Ct% of substrate remaining at time=t • C0% of substrate remaining at time=0 • t time • T½ half-life • The Half-life (T½) is determined by the following equation:
(§6) [formula] • Assuming a first-order reaction, the slope (k) is extrapolated from the aforementioned plotted data.

[2] = Intestinal S9 Assay (human GI S9); assay type: in vitro ADME; settings: 1.0 mg/mL S9 protein; for Human GI S9 [Intermediate A] / Human GI S9 [Intermediate A] %: 2 μM, TRIS pH 7.4; for half-life at 2 μM: human, TRIS pH 7.4, read-out: Human GI S9 T½
Protocol: as §1, §2, §3, §4, §5, §6

HIV-1 IIIB strain = assay: MT-4 HIV Wild Type Virus Infection Assay (IIIB Virus); assay type: cell-based; settings: Human immunodeficiency virus 1, IIIB, MT4, 120 h, MT-4 cells acutely infected with HIV-1 IIIB, 5 day incubation, Cell-titer glo
Outline: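 MT-4 cells at 2×10^6 cells/ml in RPMI/10% FBS were acutely infected with HIV-1 IIIB for 1 h at 37° C, diluted 25× and added to serially diluted compounds. After 5 days at 37° C, viability read by CellTiter-Glo luminescence; EC50 from dose-response curves.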

Solubility in FaSSIF = settings: 23 °C, pH 6.5, fassif, thermodynamic from solid
Outline: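 Concentration measured by HPLC-UV after solid compound was dosed at 5 mg/mL into pH 6.5 fasted-state simulated intestinal fluid containing taurocholate and lecithin (4:1 molar) and vortexed.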

[3] = biological target: bovine intestinal alkaline phosphatase (Bos taurus (Bovine), UniProt P19111); assay: BiALP: conversion by bovine intestinal alkaline phosphatase; assay type: in vitro ADME; settings: 2 μM substrate, 100 ng/mL iALP, Tris pH 7.8, 37° C., 60 minutes; for [Intermediate A] or [Amprenavir]: parent formed
Outline: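 Compounds at 2 μM final were incubated 60 min at 37° C in 0.1 M Tris-HCl pH 7.8 with 1 mM MgCl2 and 1 mM ZnCl2, with or without 100 ng/mL iALP (0.01 units/mL). Samples were quenched with acetonitrile/formic acid containing labetalol. Conversion was quantified by LC-MS peak area ratios against a 2 μM product standard.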

PBS Stability Assay = assay type: physicochemical; settings: buffer, pH 7.4, 2 μM, phosphate buffered saline pH 7.4; read-out: PBS T½
Outline: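 Test compound at 2 μM final was incubated in PBS, pH 7.4, and sampled at 0, 10, 20, 30, 60 and 120 min into acetonitrile/1% formic acid quench with labetalol internal standard. Remaining compound was quantified by LC-MS peak-area ratio, and half-life came from a first-order exponential fit.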

Chain of bovine intestinal alkaline phosphatase (P19111 20-506): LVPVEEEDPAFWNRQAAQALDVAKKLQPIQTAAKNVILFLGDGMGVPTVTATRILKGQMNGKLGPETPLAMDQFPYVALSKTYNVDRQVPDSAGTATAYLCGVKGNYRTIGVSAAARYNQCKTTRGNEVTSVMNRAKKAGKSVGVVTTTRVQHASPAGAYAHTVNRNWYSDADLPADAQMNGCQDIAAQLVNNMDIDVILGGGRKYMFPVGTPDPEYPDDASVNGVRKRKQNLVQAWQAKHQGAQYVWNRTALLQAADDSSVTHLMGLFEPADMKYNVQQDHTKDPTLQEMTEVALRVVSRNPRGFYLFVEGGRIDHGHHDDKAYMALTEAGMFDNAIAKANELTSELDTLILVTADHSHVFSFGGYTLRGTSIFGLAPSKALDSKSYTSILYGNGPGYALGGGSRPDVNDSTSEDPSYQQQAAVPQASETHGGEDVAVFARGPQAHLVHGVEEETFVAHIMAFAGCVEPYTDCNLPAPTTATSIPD

Row | Compound | Dog GI S9 [Intermediate A] [1] [nM] | Dog GI S9 [Intermediate A] % [1] [%] | half-life at 2 μM [1] [h] | Human GI S9 [Intermediate A] [2] [nM] | Human GI S9 [Intermediate A] % [2] [%] | half-life at 2 μM [2] [h] | EC50 (HIV-1 IIIB strain) [nM] | solubility at 2 h (Solubility in FaSSIF) [µg/mL] | [Compound] [3] [nM] | biALP Intermediate A or [Amprenavir] (% of total) [3] | [Intermediate A] or [Amprenavir] [3] [nM] | half-life at 2 μM (PBS Stability Assay) [h]
1 | COC(=O)N[C@H](C(=O)N[C@@H](Cc1ccc(C#Cc2cnc(N3CC4CCC(C3)N4C3COC3)nc2)cc1)[C@H](CN(Cc1c(F)cc(-c2ccn(C(F)F)n2)cc1F)NC(=O)[C@@H](NC(=O)OC)C(C)(C)C(F)(F)F)OC(=O)CC(C)(C)c1c(CC(=O)Nc2cc(C(=O)O)cc(C(=O)O)c2)cccc1OP(=O)(O)O)C(C)(C)C(F)(F)F [Example 19] | 1045.1 | 94.7 | 0.3 | 323.6 | 22.1 | 3.83 | 38.9 | 3650 (≈ 2230 µM) | 1405.7 | 18.4 % of total | 317.9 | –
2 | COC(=O)N[C@H](C(=O)N[C@@H](Cc1ccc(C#Cc2cnc(N3CC4CCC(C3)N4C3COC3)nc2)cc1)[C@H](CN(Cc1c(F)cc(-c2ccn(C(F)F)n2)cc1F)NC(=O)[C@@H](NC(=O)OC)C(C)(C)C(F)(F)F)OC(=O)CC(C)(C)c1c(CC(=O)NC2(C(=O)O)CCOCC2)cc(C)cc1OP(=O)(O)O)C(C)(C)C(F)(F)F [Example 31] | – | – | 3.71 | – | – | 8.24 | 276 | 3510 (≈ 2180 µM) | 2125.6 | – | – | –
3 | COC(=O)N[C@H](C(=O)N[C@@H](Cc1ccc(C#Cc2cnc(N3CC4CCC(C3)N4C3COC3)nc2)cc1)[C@H](CN(Cc1c(F)cc(-c2ccn(C(F)F)n2)cc1F)NC(=O)[C@@H](NC(=O)OC)C(C)(C)C(F)(F)F)OC(=O)CC(C)(C)c1c(CC(=O)N[C@@H](CCS(=O)(=O)O)C(=O)O)cccc1OP(=O)(O)O)C(C)(C)C(F)(F)F [Example 40] | – | – | 0.537 | – | – | 4.76 | 40.5 | 4910 (≈ 3000 µM) | 1458.8 | – | – | –
4 | COC(=O)N[C@H](C(=O)N[C@@H](Cc1ccc(C#Cc2cnc(N3CC4CCC(C3)N4C3COC3)nc2)cc1)[C@H](CN(Cc1c(F)cc(-c2ccn(C(F)F)n2)cc1F)NC(=O)[C@@H](NC(=O)OC)C(C)(C)C(F)(F)F)OC(=O)CC(C)(C)c1c(CC(=O)N2CCC[C@H]2C(=O)O)cccc1OP(=O)(O)O)C(C)(C)C(F)(F)F [Example 46] | – | – | 5.08 | – | – | 7.41 | 190 | 2870 (≈ 1830 µM) | 1864.7 | – | – | –
5 | COC(=O)N[C@H](C(=O)N[C@@H](Cc1ccc(C#Cc2cnc(N3CC4CCC(C3)N4C3COC3)nc2)cc1)[C@H](CN(Cc1c(F)cc(-c2ccn(C(F)F)n2)cc1F)NC(=O)[C@@H](NC(=O)OC)C(C)(C)C(F)(F)F)OC(=O)CC(C)(C)c1c(CC(=O)NCc2ccc(S(N)(=O)=O)cc2)cc(C)cc1OP(=O)(O)O)C(C)(C)C(F)(F)F [Example 62] | 38.3 | 3.1 | 13.2 | 22.2 | 1.8 | – | 280 | – | 2213.4 | 0 % of total | 0 | –
6 | COC(=O)N[C@H](C(=O)N[C@@H](Cc1ccc(C#Cc2cnc(N3CC4CCC(C3)N4C3COC3)nc2)cc1)[C@H](CN(Cc1c(F)cc(-c2ccn(C(F)F)n2)cc1F)NC(=O)[C@@H](NC(=O)OC)C(C)(C)C(F)(F)F)OC(=O)CC(C)(C)c1c(CC(=O)NCCOP(=O)(O)O)cc(C)cc1OP(=O)(O)O)C(C)(C)C(F)(F)F [Example 100, (5S,10S,11S,14S)-8-(4-(1-(difluoromethyl)-1H-pyrazol-3-yl)-2,6-difluorobenzyl)-11-(4-((2-(8-(oxetan-3-yl)-3,8-diazabicyclo[3.2.1]octan-3-yl)pyrimidin-5-yl)ethynyl)benzyl)-3,6,13,16-tetraoxo-5,14-bis(1,1,1-trifluoro-2-methylpropan-2-yl)-2,17-dioxa-4,7,8,12,15-pentaazaoctadecan-10-yl 3-methyl-3-(4-methyl-2-(2-oxo-2-((2-(phosphonooxy)ethyl)amino)ethyl)-6-(phosphonooxy)phenyl)butanoate] | – | – | – | – | – | – | 42.4 | 4450 (≈ 2770 µM) | 1103.4 | – | – | 5.22
7 | COC(=O)N[C@H](C(=O)N[C@@H](Cc1ccc(C#Cc2cnc(N3CC4CCC(C3)N4C3COC3)nc2)cc1)[C@H](CN(Cc1c(F)cc(-c2ccn(C(F)F)n2)cc1F)NC(=O)[C@@H](NC(=O)OC)C(C)(C)C(F)(F)F)OC(=O)CC(C)(C)c1c(CC(=O)N[C@H]2C[C@H](C(=O)O)C2)cc(C)cc1OP(=O)(O)O)C(C)(C)C(F)(F)F [Example 101] | – | – | – | – | – | – | 60.6 | 1520 (≈ 964 µM) | 1688.4 | – | – | 8.09
8 | COC(=O)N[C@H](C(=O)N[C@@H](Cc1ccc(C#Cc2cnc(N3CC4CCC(C3)N4C3COC3)nc2)cc1)[C@H](CN(Cc1c(F)cc(-c2ccn(C(F)F)n2)cc1F)NC(=O)[C@@H](NC(=O)OC)C(C)(C)C(F)(F)F)OC(=O)CC(C)(C)c1c(CC(=O)N[C@H]2C[C@@H](C(=O)O)C2)cc(C)cc1OP(=O)(O)O)C(C)(C)C(F)(F)F [Example 102] | – | – | – | – | – | – | 54.1 | 2860 (≈ 1810 µM) | 1966.3 | – | – | 7.78
9 | COC(=O)N[C@H](C(=O)N[C@@H](Cc1ccc(C#Cc2cnc(N3CC4CCC(C3)N4C3COC3)nc2)cc1)[C@H](CN(Cc1c(F)cc(-c2ccn(C(F)F)n2)cc1F)NC(=O)[C@@H](NC(=O)OC)C(C)(C)C(F)(F)F)OC(=O)CC(C)(C)c1c(CC(=O)NCC(C)(C)C(=O)O)cc(C)cc1OP(=O)(O)O)C(C)(C)C(F)(F)F [Example 103] | – | – | – | – | – | – | 132 | 80 (≈ 50.5 µM) | 1589 | – | – | 5.52
10 | COC(=O)N[C@H](C(=O)N[C@@H](Cc1ccc(C#Cc2cnc(N3CC4CCC(C3)N4C3COC3)nc2)cc1)[C@H](CN(Cc1c(F)cc(-c2ccn(C(F)F)n2)cc1F)NC(=O)[C@@H](NC(=O)OC)C(C)(C)C(F)(F)F)OC(=O)CC(C)(C)c1c(CC(=O)N(CC(=O)O)CC(=O)O)cc(C)cc1OP(=O)(O)O)C(C)(C)C(F)(F)F [Example 106] | – | – | – | – | – | – | 761 | 3920 (≈ 2450 µM) | 1588.2 | – | – | 4.52
